Measured values from PubChem BioAssay (NCI).
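A five-concentration, 48-hour dose response in 96-well plates underlies each endpoint, interpolated linearly between surrounding concentrations. GI50 = concentration required for 50% inhibition of growth. TGI: total growth inhibition.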

Columns and labels:
Test in all cases: DTP human tumour cell line panel, 48 h
[1] = system: NCI-H226 lung
[2] = system: HCC-2998 colon
[3] = system: K-562 leukemia
[4] = system: SK-MEL-28 melanoma
[5] = system: IGROV1 ovarian
[6] = system: CAKI-1 renal
[7] = system: HOP-62 NSCLC
[8] = system: OVCAR-4 ovarian
[9] = system: HL-60(TB) leukemia
[10] = system: MDA-MB-231 breast
[11] = system: UO-31 renal
[12] = system: NCI/ADR-RES ovarian
[13] = system: OVCAR-8 ovarian
[14] = system: ACHN renal
[15] = system: UACC-257 melanoma
[16] = system: NCI-H23 lung
[17] = system: MOLT-4 leukemia
[18] = system: TK-10 renal
[19] = system: SK-MEL-5 melanoma
[20] = system: SN12C renal
[21] = system: HOP-92 NSCLC
[22] = system: SNB-19 CNS
[23] = system: RPMI-8226 leukemia
[24] = system: CCRF-CEM leukemia
[25] = system: SNB-75 CNS
[26] = system: OVCAR-3 ovarian
[27] = system: M14 melanoma
[28] = system: A498 renal
[29] = system: U251 CNS
[30] = system: SK-MEL-2 melanoma
[31] = system: RXF 393 renal
[32] = system: MALME-3M melanoma
[33] = system: MDA-MB-435
[34] = system: T-47D breast
[35] = system: SF-539 CNS
[36] = system: DU-145 prostate
[37] = system: NCI-H522 lung
[38] = system: LOX IMVI melanoma
[39] = system: SF-268 CNS
[40] = system: HS 578T breast
[41] = system: BT-549 breast
[42] = system: SF-295 CNS
[43] = system: PC-3 prostate
[44] = system: MCF7 breast
[45] = system: HCT-15 colon
[46] = system: NCI-H460 lung
[47] = system: HT29 colon
[48] = system: OVCAR-5 ovarian
[49] = system: KM12 colon
[50] = system: COLO 205 colon
[51] = system: SR leukemia
[52] = system: EKVX NSCLC
[53] = system: A549 NSCLC
[54] = system: SW-620 colon
[55] = system: SK-OV-3 ovarian
[56] = system: 786-0 renal
[57] = system: UACC-62 melanoma
[58] = system: HCT-116 colon

Compound: Nc1nc2c(c3cnccc13)C(c1ccc(Cl)c(Cl)c1)Cc1cnccc1-2 (stereo unspecified)
- GI50 [1]: 1230 nM
- TGI [1]: 3940 nM
- GI50 [2]: 1650 nM
- TGI [2]: 7370 nM
- GI50 [3]: 452 nM
- TGI [3]: 32800 nM
- GI50 [4]: 2850 nM
- TGI [4]: 19000 nM
- GI50 [5]: 1850 nM
- TGI [5]: 17800 nM
- GI50 [6]: 658 nM
- TGI [6]: 13400 nM
- GI50 [7]: 583 nM
- TGI [7]: 4990 nM
- GI50 [8]: 4280 nM
- TGI [8]: 25100 nM
- GI50 [9]: 384 nM
- TGI [9]: 2340 nM
- GI50 [10]: 937 nM
- TGI [10]: 14800 nM
- GI50 [11]: 1540 nM
- TGI [11]: 6720 nM
- GI50 [12]: 430 nM
- TGI [12]: 7690 nM
- GI50 [13]: 2690 nM
- TGI [13]: 15000 nM
- GI50 [14]: 807 nM
- TGI [14]: 4040 nM
- GI50 [15]: 14800 nM
- TGI [15]: 29100 nM
- GI50 [16]: 1140 nM
- TGI [16]: 9130 nM
- GI50 [17]: 480 nM
- TGI [17]: 5480 nM
- GI50 [18]: 1180 nM
- TGI [18]: 9480 nM
- GI50 [19]: 580 nM
- TGI [19]: 3830 nM
- GI50 [20]: 1180 nM
- TGI [20]: 6680 nM
- GI50 [21]: 1880 nM
- TGI [21]: 14500 nM
- GI50 [22]: 650 nM
- TGI [22]: 13500 nM
- GI50 [23]: 788 nM
- TGI [23]: 12900 nM
- GI50 [24]: 388 nM
- TGI [24]: 12600 nM
- GI50 [25]: 368 nM
- TGI [25]: 12100 nM
- GI50 [26]: 382 nM
- TGI [26]: 5860 nM
- GI50 [27]: 360 nM
- TGI [27]: 2160 nM
- GI50 [28]: 227 nM
- TGI [28]: 1010 nM
- GI50 [29]: 375 nM
- TGI [29]: 2600 nM
- GI50 [30]: 401 nM
- TGI [30]: 1860 nM
- GI50 [31]: 522 nM
- TGI [31]: 3480 nM
- GI50 [32]: 915 nM
- TGI [32]: 18600 nM
- GI50 [33]: 241 nM
- TGI [33]: 646 nM
- GI50 [34]: 333 nM
- TGI [34]: 18200 nM
- GI50 [35]: 486 nM
- TGI [35]: 4290 nM
- GI50 [36]: 615 nM
- TGI [36]: 11200 nM
- GI50 [37]: 249 nM
- TGI [37]: 730 nM
- GI50 [38]: 293 nM
- TGI [38]: 11000 nM
- GI50 [39]: 1180 nM
- TGI [39]: 18300 nM
- GI50 [40]: 818 nM
- TGI [40]: 22000 nM
- GI50 [41]: 570 nM
- TGI [41]: 7300 nM
- GI50 [42]: 394 nM
- TGI [42]: 4760 nM
- GI50 [43]: 544 nM
- TGI [43]: 12800 nM
- GI50 [44]: 305 nM
- TGI [44]: 11700 nM
- GI50 [45]: 409 nM
- TGI [45]: 11100 nM
- GI50 [46]: 428 nM
- TGI [46]: 3990 nM
- GI50 [47]: 370 nM
- TGI [47]: 3310 nM
- GI50 [48]: 2520 nM
- TGI [48]: 17000 nM
- GI50 [49]: 480 nM
- TGI [49]: 12600 nM
- GI50 [50]: 356 nM
- TGI [50]: 1090 nM
- GI50 [51]: 384 nM
- TGI [51]: > 100000 nM
- GI50 [52]: 971 nM
- TGI [52]: 17500 nM
- GI50 [53]: 665 nM
- TGI [53]: 4840 nM
- GI50 [54]: 449 nM
- TGI [54]: 11500 nM
- GI50 [55]: 463 nM
- TGI [55]: 10800 nM
- GI50 [56]: 565 nM
- TGI [56]: 3900 nM
- GI50 [57]: 352 nM
- TGI [57]: 2440 nM
- GI50 [58]: 432 nM
- TGI [58]: 11200 nM
